The values that follow come from patent publication US20220220152A1, “BIVALENT ANTAGONISTS OF INHIBITORS OF APOPTOSIS PROTEINS” (Hepagene Therapeutics (HK) Limited, priority 2019, published 2022).

In one experiment the target is T1, cIAP2-BIR3 (Homo sapiens, UniProt Q13489).
T1 construct: cIAP2-BIR3; purchased Reaction Biology APT-11-372
The experiment in a line: cIAP2-BIR3 fluorescence polarization binding assay. Conditions: FP, probe AbuRPFK-5FAM (SM5F) 5 nM, cIAP2-BIR3 80 nM, 60 min at 25° C. The essentials:
(§1)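 Fluorescence polarization competition using 5-carboxyfluorescein-labelled peptide probe AbuRPFK-5FAM; protein and compound preincubated 15 min, probe added, then 60 min at 25° C.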

In a further experiment the target is T2, XIAP-BIR3 (Homo sapiens, UniProt P98170).
T2 construct: XIAP-BIR3; purchased Reaction Biology APT-11-374
T2 sequence (P98170 241-356 limits assumed): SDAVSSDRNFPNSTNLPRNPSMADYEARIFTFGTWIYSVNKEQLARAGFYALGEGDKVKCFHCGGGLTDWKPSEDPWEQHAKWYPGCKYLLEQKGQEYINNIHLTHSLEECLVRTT
The experiment in a line: XIAP-BIR3 fluorescence polarization binding assay. Conditions: FP, probe AbuRPFK-5FAM (SM5F) 5 nM, XIAP-BIR3 40 nM, 60 min at 25° C. The essentials: as §1

Another experiment deals with T3, cIAP1-BIR3 (Homo sapiens, UniProt Q13490).
T3 construct: cIAP1-BIR3; purchased Reaction Biology APT-11-370
T3 sequence (Q13490 253-363 limits assumed): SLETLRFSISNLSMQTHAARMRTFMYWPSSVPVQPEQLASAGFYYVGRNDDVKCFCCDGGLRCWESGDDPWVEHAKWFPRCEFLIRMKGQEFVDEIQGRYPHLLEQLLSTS
The experiment in a line: cIAP1-BIR3 fluorescence polarization binding assay. Conditions: FP, probe AbuRPFK-5FAM (SM5F) 5 nM, cIAP1-BIR3 15 nM, 60 min at 25° C. Put shortly: as §1

T1 sequence (Q13489 238-349 limits assumed): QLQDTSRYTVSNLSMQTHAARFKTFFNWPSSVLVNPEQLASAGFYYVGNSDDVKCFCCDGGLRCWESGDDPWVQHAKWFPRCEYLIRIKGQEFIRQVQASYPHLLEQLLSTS

As for `CN[C@@H](C)C(=O)N[C@H](C(=O)N1CCC[C@H]1C(=O)N[C@@H]1CCCc2c(OCCN3CCN(CCOc4cccc5c4CCC[C@H]5NC(=O)[C@@H]4CCCN4C(=O)[C@@H](NC(=O)[C@H](C)NC)C4CCCCC4)CC3)cccc21)C1CCCCC1` [Compound IX, (2S)-1-[(2S)-2-cyclohexyl-2-[(2S)-2-(methylamino)propanamido]acetyl]-N-[(1R)-5-{2-[4-(2-{[(5R)-5-[(2S)-1-[(2S)-2-cyclohexyl-2-[(2S)-2-(methylamino)propanamido]acetyl]pyrolidine-2-amido]-5,6,7,8-tetrahydronaphthalen-1-yl]oxy}ethyl)piperazin-1-yl]ethoxy}-1,2,3,4-tetrahydmnaphthalen-1-yl]pyrrolidine-2-carboxamide], the IC50 at cIAP2-BIR3 lay within 0.01 to 0.1 µM; at XIAP-BIR3, 0.1 to 1 µM; at cIAP1-BIR3, 0.001 to 0.01 µM.
As for `CN[C@@H](C)C(=O)N[C@H](C(=O)N1CCC[C@H]1C(=O)N[C@@H]1CCc2c(-c3cccc4c3CC[C@H]4NC(=O)[C@@H]3CCCN3C(=O)[C@@H](NC(=O)[C@H](C)NC)C3CCCCC3)cccc21)C1CCCCC1` [Compound V, (2S)-1-[(2S)-2-cyclohexyl-2-[(2S)-2-(methylamino)propanamido]acetyl]-N-[(1R,1′R)-1′-[(2S)-1-[(2S)-2-cyclohexyl-2-[(2S)-2-(methylamino)propanamido]acetyl]pyrrolidine-2-amido]-1H,1′H,2H,2′H,3H,3′H-[4,4′-biinden]-1-yl]pyrrolidine-2-carboxamide], the values for the IC50 at cIAP2-BIR3, at XIAP-BIR3 and on cIAP1-BIR3 were 0.01 to 0.1 µM, 0.01 to 0.1 µM and 0.001 to 0.01 µM, respectively.
In the case of `CN[C@@H](C)C(=O)N[C@@H](C)C(=O)N1CCC[C@H]1C(=O)N[C@@H]1CCOc2c(-c3cccc4c3OCC[C@H]4NC(=O)[C@@H]3CCCN3C(=O)[C@H](C)NC(=O)[C@H](C)NC)cccc21` [Compound V-A, (2S)-1-[(2S)-2-[(2S)-2-(methylamino)propanamido]propanoyl]-N-[(4R)-8-[(4R)-4-[(2S)-1-[(2S)-2-[(2S)-2-(methylamino)propanamido]propanoyl]pyrrolidine-2-amido]-3,4-dihydro-2H-1-benzopyran-8-yl]-3,4-dihydro-2H-1-benzopyran-4-yl]pyrrolidine-2-carboxamide], the concentration for half-maximal inhibition (IC50) fell in the range of 0.01 to 0.1 µM at cIAP2-BIR3, 0.1 to 1 µM on XIAP-BIR3 and 0.001 to 0.01 µM at cIAP1-BIR3.
With `CC[C@H](NC(=O)[C@H](C)NC)C(=O)N1CCC[C@H]1C(=O)N[C@@H]1CCOc2c(-c3cccc4c3OCC[C@H]4NC(=O)[C@@H]3CCCN3C(=O)[C@H](CC)NC(=O)[C@H](C)NC)cccc21` [Compound V-B, (2S)-1-[(2S)-2-[(2S)-2-(methylamino)propanamido]butanoyl]-N-[1(4R)-8-[(4R)-4-[(2S)-1-[(2S)-2-[(2S)-2-(methylamino)propanamido]butanoyl]pyrrolidine-2-amido]-3,4-dihydro-2H-1-benzopyran-8-yl]-3,4-dihydro-2H-1-benzopyran-4-yl]pyrrolidine-2-carboxamide], the IC50 at cIAP2-BIR3 fell in the range of 0.01 to 0.1 µM; at XIAP-BIR3, 0.01 to 0.1 µM; on cIAP1-BIR3 it was 0.001 to 0.01 µM.
Take `CN[C@@H](C)C(=O)N[C@H](C(=O)N1CCC[C@H]1C(=O)N[C@@H]1CCOc2c(-c3cccc4c3OCC[C@H]4NC(=O)[C@@H]3CCCN3C(=O)[C@@H](NC(=O)[C@H](C)NC)C(C)C)cccc21)C(C)C` [Compound V-C, (2S)-1-[(2S)-3-methyl-2-[(2S)-2-(methylamino)propanamido]butanoyl]-N-[(4R)-8-[(4R)-4-[(2S)-1-[(2S)-3-methyl-2-[(2S)-2-(methylamino)propanamido]butanoyl]pyrrolidine-2-amido]-3,4-dihydro-2H-1-benzopyran-8-yl]-3,4-dihydro-2H-1-benzopyran-4-yl]pyrrolidine-2-carboxamide]: the IC50 lay in the range of 0.01 to 0.1 µM at cIAP2-BIR3, 0.01 to 0.1 µM on XIAP-BIR3 and 0.001 to 0.01 µM at cIAP1-BIR3.
As for `CN[C@@H](C)C(=O)N[C@H](C(=O)N1CCC[C@H]1C(=O)N[C@@H]1CCOc2c(-c3cccc4c3OCC[C@H]4NC(=O)[C@@H]3CCCN3C(=O)[C@@H](NC(=O)[C@H](C)NC)C(C)(C)C)cccc21)C(C)(C)C` [Compound V-D, (2S)-1-[(2S)-3,3-dimethyl-2-[(2S)-2-(methylamino)propanamido]butanoyl]-N-[(4R)-8-[(4R)-4-[(2S)-1-(2S)-3,3-dimethyl-2-[(2S)-2-(methylamino)propanamido]butanoyl]pyrrolidine-2-amido]-3,4-dihydro-2H-1-benzopyran-8-yl-3,4-dihydro-2H-1-benzopyran-4-yl]pyrrolidine-2-carboxamide], the IC50 lay in the range of 0.01 to 0.1 µM on cIAP2-BIR3, 0.01 to 0.1 µM on XIAP-BIR3 and 0.001 to 0.01 µM at cIAP1-BIR3.
Consider `CN[C@@H](C)C(=O)N[C@H](C(=O)N1CCC[C@H]1C(=O)N[C@@H]1CCOc2c(-c3cccc4c3OCC[C@H]4NC(=O)[C@@H]3CCCN3C(=O)[C@@H](NC(=O)[C@H](C)NC)C3CC3)cccc21)C1CC1` [Compound V-E, (2S)-1-[(2S)-2-cyclopropyl-2-[(2S)-2-(methylamino)propanamido]acetyl]-N-[(4R)8-[(4R)-4-[(2S)-1-[(2S)-2-cyclopropyl-2-[(2S)-2-(methylamino)propanamido]acetyl]pyrrolidine-2-amido]-3,4-dihydro-2H-1-benzopyran-8-yl]-3,4-dihydro-2H-1-benzopyran-4-yl]pyrrolidine-2-carboxamide], for which the figures for the IC50 on cIAP2-BIR3, on XIAP-BIR3 and on cIAP1-BIR3 were 0.01 to 0.1 µM, 0.01 to 0.1 µM and 0.001 to 0.01 µM, respectively.
Consider `CN[C@@H](C)C(=O)N[C@H](C(=O)N1CCC[C@H]1C(=O)N[C@@H]1CCOc2c(-c3cccc4c3OCC[C@H]4NC(=O)[C@@H]3CCCN3C(=O)[C@@H](NC(=O)[C@H](C)NC)C3CCCC3)cccc21)C1CCCC1` [Compound V-F, (2S)-1-[(2S)-2-cyclopentyl-2-[(2S)-2-(methylamino)propanamido]acetyl]-N-[(4R)-8-[(4R)-4-[(2S)-1-[(2S)-2-cyclopentyl-2-[(2S)-2-(methylamino)propanamido]acetyl]pyrrolidine-2-amido]-3,4-dihydro-2H-1-benzopyran-8-yl]-3,4-dihydro-2H-1-benzopyran-4-yl]pyrrolidine-2-carboxamide], for which the IC50 is 0.01 to 0.1 µM on cIAP2-BIR3, 0.01 to 0.1 µM at XIAP-BIR3 and 0.001 to 0.01 µM on cIAP1-BIR3.
Take `CN[C@@H](C)C(=O)N[C@H](C(=O)N1CCC[C@H]1C(=O)N[C@@H]1CCc2c(-c3cccc4c3CC[C@H]4NC(=O)[C@@H]3CCCN3C(=O)[C@@H](NC(=O)[C@H](C)NC)C(C)C)cccc21)C(C)C` [Compound V-G, (2S)-1-[(2S)-3-methyl-2-[(2S)-2-(methylamino)propanamido]butanoyl]-N-[(1R,1′R)-1′-[(2S)-1-[(2S)-3-methyl-2-[(2S)-2-(methylamino)propanamido]butanoyl]pyrrolidine-2-amido]-1H,1′H,2H,2′H,3H,3′H-[4,4′-biinden]-1-yl]pyrrolidine-2-carboxamide]: the concentration for half-maximal inhibition (IC50) at cIAP2-BIR3 is 0.01 to 0.1 µM; at XIAP-BIR3, 0.01 to 0.1 µM; on cIAP1-BIR3 it was 0.001 to 0.01 µM.
For `CN[C@@H](C)C(=O)N[C@@H](C)C(=O)N1CCC[C@H]1C(=O)N[C@@H]1CCCc2c(-c3cccc4c3CCC[C@H]4NC(=O)[C@@H]3CCCN3C(=O)[C@H](C)NC(=O)[C@H](C)NC)cccc21` [Compound V-H, (2S)-1-[(2S)-2-[(2S)-2-(methylamino)propanamido]propanoyl]-N-[(5R,5′R)-5′-[(2S)-1-[(2S)-2-[(2S)-2-(methylamino)propanamido]propanoyl]pyrrolidine-2-amido]-5H,5′H,6H,6′H,7H,7′H,8H,8′H-[1,1′-binaphthalen]-5-yl]pyrrolidine-2-carboxamide], the IC50 is 0.01 to 0.1 µM at cIAP2-BIR3, 0.1 to 1 µM on XIAP-BIR3 and 0.001 to 0.01 µM on cIAP1-BIR3.
Turning to `CN[C@@H](C)C(=O)N[C@H](C(=O)N1CCC[C@H]1C(=O)N[C@@H]1CCCc2c(-c3cccc4c3CCC[C@H]4NC(=O)[C@@H]3CCCN3C(=O)[C@@H](NC(=O)[C@H](C)NC)C(C)(C)C)cccc21)C(C)(C)C` [Compound V-J, (2S)-1-[(2S)-3,3-dimethyl-2-[(2S)-2-(methylamino)propanamido]butanoyl]-N-[(5R,5′R)-5′-[(2S)-[(2S)-3,3-dimethyl-2-[(2S)-2-(methylamino)propanamido]butanoyl]pyrolidine-2-amido]-5H,5′ H,6H,6′H,7H,7′H,8H,8′ H-[1,1′-binaphthalen]-5-yl]pyrrolidine-2-carboxamide], the results for the IC50 at cIAP2-BIR3, on XIAP-BIR3 and at cIAP1-BIR3 were 0.01 to 0.1 µM, 0.01 to 0.1 µM and 0.001 to 0.01 µM, respectively.
Turning to `CN[C@@H](C)C(=O)N[C@H](C(=O)N1CCC[C@H]1C(=O)N[C@@H]1CCCc2c(-c3cccc4c3CCC[C@H]4NC(=O)[C@@H]3CCCN3C(=O)[C@@H](NC(=O)[C@H](C)NC)C3CCOCC3)cccc21)C1CCOCC1` [Compound V-K, (S)-1-((S)-2-((S)-2-(methylamino)propanamido)-2-(tetrahydro-2H-pyran-4-yl)acetyl)-N-((5R,5′R)-5′-((S)-1-((S)-2-((S)-2-(methylamino)propanamido)-2-(tetrahydro-2H-pyran-4-yl)acetyl)pyrrolidine-2-carboxamido)-5,5′,6,6′,7,7′,8,8′-octahydro-[1,1′-binaphthalen]-5-yl)pyrrolidine-2-carboxamide], the IC50 at cIAP2-BIR3 was 0.01 to 0.1 µM; on XIAP-BIR3, 0.01 to 0.1 µM; on cIAP1-BIR3, 0.001 to 0.01 µM.
